Laboratory results as given in PMC4188605, “Biochemical and Pharmacological Characterization of the Human Lymphocyte Antigen B-Associated Transcript 5 (BAT5/ABHD16A)” (PLoS ONE, 2014).
Values joined by “and” are separate entries in the source; they are usually repeats but may differ in a detail not shown here. Equal values may be shown once. Read-outs that look alike come from different tables or passages of the source.

Key:
hMAGL [1] = biological target: T1, hMAGL (Homo sapiens, UniProt Q99685); conditions: 15d-PGJ2-G as substrate for hMAGL; cited from earlier work
T1 construct: expressed in transfected cells; host or cells: HEK
T1 sequence (Q99685 1-303): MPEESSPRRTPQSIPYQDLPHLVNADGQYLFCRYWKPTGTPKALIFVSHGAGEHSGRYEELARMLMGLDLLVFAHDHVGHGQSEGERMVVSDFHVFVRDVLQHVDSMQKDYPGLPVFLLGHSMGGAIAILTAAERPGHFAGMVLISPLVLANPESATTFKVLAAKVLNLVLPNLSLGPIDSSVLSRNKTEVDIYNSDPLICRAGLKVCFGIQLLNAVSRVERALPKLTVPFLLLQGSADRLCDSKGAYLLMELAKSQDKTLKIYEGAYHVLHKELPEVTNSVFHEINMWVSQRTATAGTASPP

hBAT5 [2] = biological target: T2, hBAT5 (Homo sapiens, UniProt O95870); experiment: hBAT5 substrate hydrolysis and Michaelis-Menten kinetics (glycerol assay, hBAT5-HEK293 lysates); conditions: with 0.5% BSA
T2 sequence (O95870 1-558): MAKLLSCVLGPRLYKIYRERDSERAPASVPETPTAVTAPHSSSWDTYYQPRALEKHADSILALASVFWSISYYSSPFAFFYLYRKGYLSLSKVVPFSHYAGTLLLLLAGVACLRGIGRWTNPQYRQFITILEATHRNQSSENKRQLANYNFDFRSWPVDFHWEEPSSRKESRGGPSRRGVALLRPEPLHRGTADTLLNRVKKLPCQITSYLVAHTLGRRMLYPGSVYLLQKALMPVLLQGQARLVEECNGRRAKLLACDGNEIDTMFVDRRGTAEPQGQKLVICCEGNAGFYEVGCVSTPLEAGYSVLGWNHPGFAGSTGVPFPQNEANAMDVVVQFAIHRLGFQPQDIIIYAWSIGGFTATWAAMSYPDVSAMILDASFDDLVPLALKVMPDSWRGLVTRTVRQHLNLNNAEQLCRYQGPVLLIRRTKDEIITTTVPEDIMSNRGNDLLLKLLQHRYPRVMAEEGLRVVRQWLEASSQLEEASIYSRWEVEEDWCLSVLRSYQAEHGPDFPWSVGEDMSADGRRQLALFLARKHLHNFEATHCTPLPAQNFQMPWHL
Experimental: HEK293 cells were transiently transfected with the cDNA encoding hBAT5, as detailed in the Methods section. After 48 h, cells were harvested and lysates prepared for hydrolase activity measurements using a sensitive fluorescent glycerol assay. […] Glycerol production was determined at time-point 60 min.
After 48 h, cells were harvested and lysates prepared for hydrolase activity measurements. Cellular lysates (0.3 µg/well) were incubated together with the indicated concentrations of 1-LG in assay mixes containing (+ BSA) or not (– BSA) 0.5% (w/v) BSA (A) or with 15d-PGJ2-G in assay mix containing BSA (B). […] As crude cellular lysates were used, total protein concentration was used instead of true enzyme concentration. […] Values are mean ± SEM from three independent experiments.
Glycerol liberated from the hydrolysis of glycerolipid substrates was determined kinetically using a fluorometric assay, essentially as previously described [10]. Briefly, glycerol production was coupled via a three-step enzymatic cascade to hydrogen peroxide (H2O2) dependent generation of resorufin whose fluorescence (λex 530; λem 590 nm) was kinetically monitored using a Tecan Infinite M200 plate reader (Tecan Group Ltd., Männedorf, Switzerland). The assays routinely contained 0.5% (w/v) BSA (essentially fatty acid free) as a carrier for lipophilic compounds. […] The twelve MAG substrates were tested also in assays without BSA. In addition, four commercially available PG-Gs were included. To monitor assay performance, assay blanks without enzyme, cellular background (HEK293/Mock cell lysates) as well as a glycerol standard were included for each tested substrate. Fluorescence of the assay blank was subtracted before calculation of the final results.

FAAH = biological target: T3, FAAH (Mus musculus, UniProt O08914); experiment: Competitive ABPP, mouse brain membrane proteome: FAAH band
T3 sequence (O08914 1-579): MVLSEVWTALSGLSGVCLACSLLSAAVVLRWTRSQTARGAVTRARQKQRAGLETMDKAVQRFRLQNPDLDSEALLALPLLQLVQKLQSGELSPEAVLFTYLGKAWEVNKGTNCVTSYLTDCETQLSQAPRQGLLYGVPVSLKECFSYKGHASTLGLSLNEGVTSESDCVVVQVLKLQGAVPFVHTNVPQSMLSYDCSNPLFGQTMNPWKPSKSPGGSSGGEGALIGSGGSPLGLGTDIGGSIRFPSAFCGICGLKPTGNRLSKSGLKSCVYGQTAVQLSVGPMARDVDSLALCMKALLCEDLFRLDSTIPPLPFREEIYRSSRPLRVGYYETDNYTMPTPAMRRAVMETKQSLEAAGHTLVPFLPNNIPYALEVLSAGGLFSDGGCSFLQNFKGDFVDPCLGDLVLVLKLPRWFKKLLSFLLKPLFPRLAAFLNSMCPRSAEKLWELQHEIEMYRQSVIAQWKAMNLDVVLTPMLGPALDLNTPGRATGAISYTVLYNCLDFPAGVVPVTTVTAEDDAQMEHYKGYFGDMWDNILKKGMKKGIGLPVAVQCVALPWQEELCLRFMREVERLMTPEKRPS

ABHD6 = biological target: T4, ABHD6 (Mus musculus, UniProt Q8R2Y0); experiment: Competitive ABPP, mouse brain membrane proteome: ABHD6 band
T4 sequence (Q8R2Y0 1-336): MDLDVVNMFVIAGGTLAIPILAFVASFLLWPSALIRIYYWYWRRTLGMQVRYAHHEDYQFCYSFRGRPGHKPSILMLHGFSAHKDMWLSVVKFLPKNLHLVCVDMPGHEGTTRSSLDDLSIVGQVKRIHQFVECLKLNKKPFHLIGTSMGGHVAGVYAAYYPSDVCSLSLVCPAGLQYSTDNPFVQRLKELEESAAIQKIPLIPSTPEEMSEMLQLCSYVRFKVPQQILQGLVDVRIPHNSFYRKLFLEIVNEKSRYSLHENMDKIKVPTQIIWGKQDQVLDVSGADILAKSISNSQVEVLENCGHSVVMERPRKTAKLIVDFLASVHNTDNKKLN

MAGL = biological target: T5, MAGL (Mus musculus, UniProt O35678); experiment: Competitive ABPP, mouse brain membrane proteome: MAGL doublet
T5 sequence (O35678 1-303): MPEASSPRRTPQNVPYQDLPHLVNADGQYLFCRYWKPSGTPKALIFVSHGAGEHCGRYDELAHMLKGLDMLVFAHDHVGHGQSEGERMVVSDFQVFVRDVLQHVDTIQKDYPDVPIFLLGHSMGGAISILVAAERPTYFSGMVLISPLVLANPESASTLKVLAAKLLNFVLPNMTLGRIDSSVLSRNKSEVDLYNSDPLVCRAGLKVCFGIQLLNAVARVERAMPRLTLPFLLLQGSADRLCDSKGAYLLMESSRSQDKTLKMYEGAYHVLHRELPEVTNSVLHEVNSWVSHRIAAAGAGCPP

hMAGL [3] = biological target: T1, hMAGL; experiment: Hydrolase activity assay, hMAGL-HEK lysates; format: biochemical; conditions: at 10^−5 M; read-out: Remaining activity
hFAAH = biological target: T6, hFAAH (Homo sapiens, UniProt O00519); experiment: FAAH activity assay, hFAAH-COS7 membranes (3H-anandamide); format: biochemical
T6 construct: expressed in transfected cells; host or cells: COS-7
T6 sequence (O00519 1-579): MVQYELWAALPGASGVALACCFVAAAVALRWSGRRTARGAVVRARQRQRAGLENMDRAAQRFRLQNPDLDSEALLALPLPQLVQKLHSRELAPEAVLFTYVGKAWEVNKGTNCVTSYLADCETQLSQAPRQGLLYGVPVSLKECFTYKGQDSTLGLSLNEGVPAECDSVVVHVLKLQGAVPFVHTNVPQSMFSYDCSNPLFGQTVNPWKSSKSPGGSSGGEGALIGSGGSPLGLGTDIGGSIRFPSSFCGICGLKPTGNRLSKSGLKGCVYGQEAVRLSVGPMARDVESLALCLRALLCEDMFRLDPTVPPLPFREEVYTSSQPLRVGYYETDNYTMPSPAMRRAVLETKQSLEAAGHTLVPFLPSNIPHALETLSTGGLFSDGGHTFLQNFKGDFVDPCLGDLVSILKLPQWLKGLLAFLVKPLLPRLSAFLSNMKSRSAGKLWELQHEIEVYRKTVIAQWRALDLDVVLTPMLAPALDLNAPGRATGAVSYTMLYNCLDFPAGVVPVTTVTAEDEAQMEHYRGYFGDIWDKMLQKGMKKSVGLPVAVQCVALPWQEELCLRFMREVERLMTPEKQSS

hABHD12 = biological target: T7, hABHD12 (Homo sapiens, UniProt Q8N2K0); design: method as in PMID 22969151; conditions: hABHD12-HEK lysates; cited from earlier work
T7 construct: expressed in transfected cells; host or cells: HEK293
T7 sequence (Q8N2K0 1-398): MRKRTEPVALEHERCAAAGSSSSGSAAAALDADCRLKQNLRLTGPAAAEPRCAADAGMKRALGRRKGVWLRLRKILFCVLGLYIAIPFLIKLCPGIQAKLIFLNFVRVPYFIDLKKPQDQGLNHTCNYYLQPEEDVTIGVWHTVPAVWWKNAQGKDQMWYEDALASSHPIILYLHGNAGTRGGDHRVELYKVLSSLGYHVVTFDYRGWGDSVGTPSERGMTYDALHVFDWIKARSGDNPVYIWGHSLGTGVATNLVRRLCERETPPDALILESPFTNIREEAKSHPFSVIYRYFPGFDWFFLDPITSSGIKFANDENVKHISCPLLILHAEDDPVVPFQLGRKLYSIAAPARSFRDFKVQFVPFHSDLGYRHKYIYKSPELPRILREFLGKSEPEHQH

hBAT5 [4] = biological target: T2, hBAT5; experiment: Inhibition of 1-LG hydrolysis in hBAT5-HEK293 lysates (fluorescent glycerol assay); format: biochemical; design: host or cells: HEK293; conditions: 1-LG 25 µM; 30 min inhibitor pretreatment; monitored 90 min; mean, n=3; read-out: IC50
BAT5 = biological target: T8, BAT5 (Mus musculus, UniProt Q9Z1Q2); experiment: Competitive ABPP, mouse brain membrane proteome: BAT5 band; conditions: for BAT5 selectivity among serine hydrolases as compared to 38: mouse brain membrane proteome, competitive ABPP
T8 sequence (Q9Z1Q2 1-558): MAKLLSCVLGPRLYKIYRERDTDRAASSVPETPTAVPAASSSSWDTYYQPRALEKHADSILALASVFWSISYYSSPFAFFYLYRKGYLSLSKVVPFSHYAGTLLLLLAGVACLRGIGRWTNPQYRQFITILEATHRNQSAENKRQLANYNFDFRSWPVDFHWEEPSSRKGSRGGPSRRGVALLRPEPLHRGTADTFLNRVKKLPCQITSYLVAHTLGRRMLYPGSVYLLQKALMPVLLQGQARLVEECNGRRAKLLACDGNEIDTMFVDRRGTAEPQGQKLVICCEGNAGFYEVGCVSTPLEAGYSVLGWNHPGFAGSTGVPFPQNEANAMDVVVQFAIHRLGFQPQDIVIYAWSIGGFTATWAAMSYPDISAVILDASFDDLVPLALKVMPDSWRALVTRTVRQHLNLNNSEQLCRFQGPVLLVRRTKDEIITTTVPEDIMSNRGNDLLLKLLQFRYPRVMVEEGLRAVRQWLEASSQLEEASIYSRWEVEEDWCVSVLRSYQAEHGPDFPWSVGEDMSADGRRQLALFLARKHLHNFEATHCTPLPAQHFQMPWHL

KIAA1363 = biological target: T9, KIAA1363 (Mus musculus, UniProt Q8BLF1); experiment: Competitive ABPP, mouse brain membrane proteome: KIAA1363 doublet; format: binding; conditions: 1 µM or indicated concentrations (Figure 11); 60 min
T9 construct: from tissue; host or cells: mouse whole brain membranes
T9 sequence (Q8BLF1 1-408): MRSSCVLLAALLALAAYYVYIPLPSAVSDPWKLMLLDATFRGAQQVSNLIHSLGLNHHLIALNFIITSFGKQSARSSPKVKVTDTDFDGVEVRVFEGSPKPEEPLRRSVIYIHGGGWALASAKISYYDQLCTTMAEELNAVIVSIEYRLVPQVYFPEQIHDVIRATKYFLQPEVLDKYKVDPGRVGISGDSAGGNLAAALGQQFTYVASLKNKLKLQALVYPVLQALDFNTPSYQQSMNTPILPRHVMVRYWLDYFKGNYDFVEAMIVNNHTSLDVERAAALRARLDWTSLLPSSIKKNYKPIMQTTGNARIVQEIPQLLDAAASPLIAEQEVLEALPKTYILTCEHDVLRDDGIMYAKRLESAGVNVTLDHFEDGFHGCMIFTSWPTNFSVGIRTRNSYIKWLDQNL

LYPLA1/2 = experiment: Competitive ABPP, mouse brain membrane proteome: LYPLA1/2 band; conditions: 1 µM or indicated concentrations (Figure 11); 60 min
[5] = 1 µM or indicated concentrations (Figure 11), 60 min

CCCCC/C=C/C=C1/C(=O)C=CC1C/C=C\CCCC(=O)OC(CO)CO (stereo not drawn) [15d-PGJ2-G, 15-deoxy-Δ^12,14-prostaglandin J2-2-glycerol ester]
Km (hMAGL [1]): ~15 µM
hydrolysis by hBAT5 (substrate utilization, in words) (hBAT5 [2]; 25 µM substrate, 60 min): readily hydrolyzed
Km (hBAT5 [2]; substrate of hBAT5, time-point 90 min, n=3): 20.9 µM and ~21 µM
Vmax (hBAT5 [2]; substrate of hBAT5, total lysate protein, n=3): 3.0 ± 0.2 nmol/mg/min

O=C(Oc1ccc([N+](=O)[O-])cc1)N1CCN(Cc2cccc(Oc3ccccc3)c2)CC1 [JZL195]
inhibition of probe labeling of FAAH by reference inhibitor (FAAH; reference inhibitor at the indicated concentration, used to identify the band (ref 21)): inhibited
inhibition of probe labeling of ABHD6 by reference inhibitor (ABHD6; reference inhibitor at the indicated concentration, used to identify the band (refs 18, 23, 24)): inhibited
inhibition of probe labeling of MAGL by reference inhibitor (MAGL; reference inhibitor at the indicated concentration, used to identify the band (refs 21, 22)): inhibited

CCCCCCCCCCC[C@@H](C[C@@H]1OC(=O)[C@H]1CCCCCC)OC(=O)[C@H](CC(C)C)NC=O [THL, tetrahydrolipstatin]
remaining activity at 10 µM (hMAGL [3]): 88.1%
remaining activity at 10 µM (hFAAH): 100%
IC50 (hABHD12): 193 nM
IC50 (hBAT5 [4]): 170 nM
inhibition of probe labeling of BAT5 by reference inhibitor (BAT5; reference inhibitor at the indicated concentration, used to identify the band (refs 4, 18)): inhibited
inhibition of probe labeling of ABHD6 by reference inhibitor (ABHD6): inhibited

COc1nn(-c2cccc([N+](=O)[O-])c2)c(=O)o1 [compound 40, 5-Methoxy-3-(3-nitrophenyl)-1,3,4-oxadiazol-2(3H)-one]
inhibition of probe binding to KIAA1363 (KIAA1363): did not visibly affect probe binding
IC50 (hBAT5 [4]): 63 nM
BAT5 selectivity among serine hydrolases as compared to 38 (BAT5): improved BAT5 selectivity
inhibition of probe binding to FAAH (FAAH; [5]): did not visibly affect probe binding
inhibition of probe binding to MAGL (MAGL; [5]): did not visibly affect probe binding
inhibition of probe binding to LYPLA1/2 (LYPLA1/2): did not visibly affect probe binding

COc1nn(-c2ccc(F)cc2)c(=O)o1 [compound 44]
inhibition of probe binding to KIAA1363 (KIAA1363): shared one off-target with 38
BAT5 selectivity among serine hydrolases as compared to 38 (BAT5): improved BAT5 selectivity
